Test results taken from patent US10227331B2 (priority 2015, dated 2019).

Key:
IMP-1 = IMP-1 (Serratia marcescens, UniProt P52699); experiment: biochemical; type: biochemical; conditions: CCF2-FA substrate, 2 hours at 25° C; read-out: IMP-1 IC50
Outline: (§1)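 Inhibitor was mixed with the metallo-β-lactamase and CCF2-FA. After 2 hours at 25° C, fluorescence of the coumarin–fluorescein cephalosporin substrate was read. IC50 was calculated with a 4-parameter fit.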

NDM-1 = NDM-1 (Klebsiella pneumoniae, UniProt C7C422); experiment: biochemical; type: biochemical; conditions: CCF2-FA substrate, 2 hours at 25° C; read-out: NDM-1 IC50
Outline: as §1

[1] = test system: P. aeruginosa expressing IMP-1, efflux+ (MB9798); type: cell-based, Pseudomonas aeruginosa; conditions: for P. aeruginosa expressing IMP-1, efflux+ (MB9798) MITC95: imipenem at 2 μg/mL, in the presence of a class A, C, D serine β-lactamase inhibitor closely related to relebactam; for Efflux ratio: ratio MITC95 PA_9798/MITC95 PA_9799
From the text: (§2) The strain background is Pseudomonas aeruginosa PAO1.

VIM-1 = VIM-1 (Pseudomonas aeruginosa (strain ATCC 15692 / DSM 22644 / CIP 104116 / JCM 14847 / LMG 12228 / 1C / PRS 101 / PAO1), UniProt A0A0F7KYQ8); experiment: biochemical; conditions: CCF2-FA substrate, 2 hours at 25° C
Outline: as §1

[2] = test system: P. aeruginosa expressing IMP-1, efflux− (MB9799); experiment: Efflux: concentration of MBL inhibitor which restores susceptibility to imipenem; type: cell-based, Pseudomonas aeruginosa; conditions: imipenem at 2 μg/mL, in the presence of a class A, C, D serine β-lactamase inhibitor closely related to relebactam
From the text: as §2

[3] = test system: Escherichia coli expressing NDM-1 (CLB30005, CLB30016); type: cell-based; conditions: with imipenem 1 μg/ml, 95% inhibition of bacterial growth; for Escherichia coli MITC95: NDM-1 (CLB30016)
Outline: (§3)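 Colonies from overnight 35 °C blood-agar cultures were suspended in saline, diluted 1:100 into 1.1× CAMHB and exposed to test compound with or without imipenem at 1 μg/ml. After 22–24 h at 35 °C, absorbance was read to find the concentration restoring imipenem susceptibility.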

[4] = test system: Klebsiella pneumoniae expressing VIM-1 (IHMA599644); type: cell-based; conditions: with imipenem 1 μg/ml, 95% inhibition of bacterial growth; for Klebsiella pneumoniae MITC95: VIM-1 (IHMA599644)
Outline: as §3

[5] = test system: Serratia marcescens expressing IMP-1 (CL5741); type: cell-based; conditions: with imipenem 1 μg/ml, 95% inhibition of bacterial growth; for Serratia marcescens MITC95: IMP-1 (CL5741)
Outline: as §3

NDM-1, sequence (C7C422 whole entry, looked up, species assumed): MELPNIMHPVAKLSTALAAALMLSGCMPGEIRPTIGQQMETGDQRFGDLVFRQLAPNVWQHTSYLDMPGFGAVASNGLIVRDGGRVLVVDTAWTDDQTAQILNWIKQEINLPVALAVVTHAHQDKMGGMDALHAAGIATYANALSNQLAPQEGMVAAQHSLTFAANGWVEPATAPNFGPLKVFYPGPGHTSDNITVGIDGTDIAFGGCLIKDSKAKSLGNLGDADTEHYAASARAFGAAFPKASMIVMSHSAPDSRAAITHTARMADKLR
IMP-1, sequence (P52699 whole entry, looked up, species assumed): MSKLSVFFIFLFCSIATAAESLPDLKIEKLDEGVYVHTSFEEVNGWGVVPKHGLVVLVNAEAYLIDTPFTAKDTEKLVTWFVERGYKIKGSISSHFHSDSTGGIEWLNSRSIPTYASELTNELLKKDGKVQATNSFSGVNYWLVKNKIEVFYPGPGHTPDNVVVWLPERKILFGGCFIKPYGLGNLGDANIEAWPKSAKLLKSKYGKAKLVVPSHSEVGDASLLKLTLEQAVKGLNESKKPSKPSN

Row | Compound | IC50 (IMP-1) [nM] | IC50 (NDM-1) [nM] | P. aeruginosa expressing IMP-1, efflux+ (MB9798) MITC95 [1] [µM] | Efflux ratio [1] | IC50 (VIM-1) [nM] | P. aeruginosa expressing IMP-1, efflux− (MB9799) MITC95 [2] [µM] | Escherichia coli expressing NDM-1 (CLB30016) MITC95 [3] [µM] | Klebsiella pneumoniae expressing VIM-1 (IHMA599644) MITC95 [4] [µM] | Serratia marcescens expressing IMP-1 (CL5741) MITC95 [5] [µM] | Escherichia coli MITC95 [3] [µM] | Klebsiella pneumoniae MITC95 [4] [µM] | Serratia marcescens MITC95 [5] [µM]
1 | NS(=O)(=O)c1c(S(=O)(=O)C2CNC2)ccc(-c2ccc3cn[nH]c3c2)c1-c1nnn[nH]1.O=C(O)C(F)(F)F [Example 127, 3-((4-(1H-indazol-6-yl)-2-sulfamoyl-3-(1H-tetrazol-5-yl)phenyl)sulfonyl)azetidin-1-ium 2,2,2-trifluoroacetate] | 3.01 | 0.429 | 25 | 15.99 | 0.428 | 1.563 | 0.7813 | 3.125 | 3.125 |  |  | 
2 | NS(=O)(=O)c1c(Sc2ccncc2)ccc(-c2ccc(C3CCNCC3)cc2)c1-c1nn[nH]n1 [Example 242, 4′-(Piperidin-4-yl)-4-(pyridin-4-ylthio)-2-(2H-tetrazol-5-yl)-[1,1′-biphenyl]-3-sulfonamide] | 3.34 | 4.01 | 50 | 31.99 | 7.47 | 1.563 | 12.5 | 50 | 6.25 |  |  | 
3 | NCCS(=O)(=O)c1ccc(-c2cccc(NC(=O)[C@H](N)CO)c2)c(-c2nn[nH]n2)c1S(N)(=O)=O [compound 334, (R)-2-amino-N-(4′-((2-aminoethyl)sulfonyl)-3′-sulfamoyl-2′-(2H-tetrazol-5-yl)-[1,1′-biphenyl]-3-yl)-3-hydroxypropanamide] | 4.54 | 2.53 | 12.5 | 8.00 | 0.504 | 1.563 |  |  |  | 1.563 | 3.125 | 3.125
4 | NS(=O)(=O)c1c(S(=O)(=O)C2CCNCC2)ccc(-c2ccc(C3CCNCC3)cc2)c1-c1nnn[nH]1 [Example 228, 4′-(piperidin-4-yl)-4-(piperidin-4-ylsulfonyl)-2-(1H-tetrazol-5-yl)-[1,1′-biphenyl]-3-sulfonamide] | 0.521 | 0.985 | 0.7813 | 1.00 | 0.314 | 0.7813 | 1.563 | 3.125 | 3.125 |  |  | 
5 | NS(=O)(=O)c1c(S(=O)(=O)[C@H]2CCNC2)ccc(-c2cccc3nc(C(=O)O)[nH]c23)c1-c1nn[nH]n1 [Example 290, 7-(4-((S)-pyrrolidin-3-ylsulfonyl)-3-sulfamoyl-2-(2H-tetrazol-5-yl)phenyl)-1H-benzo[d]imidazole-2-carboxylic Acid] | 2.96 | 0.472 | 6.25 | 4.00 | 0.5 | 1.563 |  |  |  | 3.125 | 3.125 | 3.125
6 | NS(=O)(=O)c1c(S(=O)(=O)C2CNC2)ccc(-c2cccc3c2CNC3=O)c1-c1nnn[nH]1.O=C(O)C(F)(F)F [Example 113, 3-((4-(1-oxoisoindolin-4-yl)-2-sulfamoyl-3-(1H-tetrazol-5-yl)phenyl)sulfonyl)azetidin-1-ium 2,2,2-trifluoroacetate] | 6.06 | 0.137 | 12.5 | 8.00 | 0.164 | 1.563 | 1.563 | 6.25 | 3.125 |  |  | 
7 | NS(=O)(=O)c1c(S(=O)(=O)CC2CNC2)ccc([C@H]2CC[C@H](N)CC2)c1-c1nnn[nH]1 [Example 204, 3-((1r,4r)-4-aminocyclohexyl)-6-((azetidin-3-ylmethyl)sulfonyl)-2-(1H-tetrazol-5-yl)benzenesulfonamide] | 37.5 | 16.2 | 1.563 | 2.00 | 1.04 | 0.7813 | 0.7813 | 1.563 | 1.563 |  |  | 
8 | NC[C@H](O)CS(=O)(=O)c1ccc(-c2cccc3[nH]c(N)nc23)c(-c2nn[nH]n2)c1S(N)(=O)=O [Example 282, 3-(2-amino-1H-benzo[d]imidazol-4-yl)-6-((S)-3-amino-2-hydroxypropylsulfonyl)-2-(2H-tetrazol-5-yl)benzenesulfonamide] | 0.777 | 0.157 | 0.418 | 1.00 | 0.28 | 0.418 |  |  |  | 0.3438 | 0.8359 | 0.5156
9 | Cl.Cl.NCCCS(=O)(=O)c1ccc(-c2cccc3[nH]c(N)nc23)c(-c2nn[nH]n2)c1S(N)(=O)=O [Example 270, 3-(2-amino-1H-benzo[d]imidazol-4-yl)-6-(3-aminopropylsulfonyl)-2-(2H-tetrazol-5-yl)benzenesulfonamide dihydrochloride] | 0.625 | 0.143 | 0.4453 | 1.00 | 0.228 | 0.4453 |  |  |  | 0.125 | 0.8906 | 0.6406
10 | Nc1ncc(-c2ccc(S(=O)(=O)C3CNC3)c(S(N)(=O)=O)c2-c2nn[nH]n2)c2cccnc12 [Example 248, 3-(8-Amino-1,7-naphthyridin-5-yl)-6-(azetidin-3-ylsulfonyl)-2-(2H-tetrazol-5-yl)benzenesulfonamide] | 2.09 | 0.566 | 6.25 | 4.00 | 0.556 | 1.563 |  |  |  | 3.125 | 3.125 | 1.563
11 | NCCS(=O)(=O)c1ccc(-c2ccnc3ccccc23)c(-c2nnn[nH]2)c1S(N)(=O)=O.O=C(O)C(F)(F)F [Example 138, 2-((4-(quinolin-4-yl)-2-sulfamoyl-3-(1H-tetrazol-5-yl)phenyl)sulfonyl)ethanaminium 2,2,2-trifluoroacetate] | 1.28 | 0.8 | 6.25 | 4.00 | 0.41 | 1.563 | 1.563 | 6.25 | 3.125 |  |  | 
